# Measured values as given in paper PMC2747021, “Synergistic Antibacterial and Anti-Inflammatory Activity of Temporin A and Modified Temporin B In Vivo” (PLoS ONE, 2009).
# No end group written: not given here.
# Key:
# [1] = tested on: Listeria monocytogenes; settings: 20 h
# [2] = tested on: Staphilococcus.aureus A170; settings: single peptide; MIC100, MH broth, about 10^6 CFU/ml, 37°C 20 h, absorbance 600 nm, triplicate
# [3] = tested on: Staphilococcus aureus 007; settings: 20 h
# [4] = tested on: Salmonella enterica serovar Paratyphi; assay: Antibacterial activity, MIC100 broth dilution; assay type: cell-based; settings: single peptide; MIC100, MH broth, about 10^6 CFU/ml, 37°C 20 h, absorbance 600 nm, triplicate
# [5] = tested on: Escherichian coli; settings: 20 h
# [6] = tested on: Staphilococcus .aureus A172; settings: 20 h
substance,measurement,setting,value
KKYLLPIVGNLLKSLL-NH2 [TB-YK],MIC,[1],10 µg/mL
same,MIC,[2],20 µg/mL
same,MIC,[3],10 µg/mL
same,MIC,[4],20 µg/mL
same,MIC,[5],20 µg/mL
same,MIC,[6],25 µg/mL
